Data published in US7067488B2, “Modified GLP-1 peptides with increased biological potency” (TheraTechnologies Inc., priority 2002, dated 2006).

How the values were obtained:
RINm5F cells = assay: cAMP production in RINm5F cells; format: cell-based; settings: Mean ± SD; for IC50: 40 minutes incubation with peptide, 0.5 mM IBMX
Description: RINm5F cells (ATCC # CRL-2058) were grown to confluence and used 4 days following confluency. Aqueous stock solutions (1 mM) of GLP-1, 5, 8, 16, and 17, also containing 0.1% BSA, were made prior to the assay. Cells were pre-incubated with 100 μl RPMI containing 0.5 mM IBMX for 10 minutes at 37° C. Diluted (10^−5 to 10^−11 M) peptides (100 μl) were added to the wells and incubated for 40 minutes. At the end of the incubation period, the supernatant was collected and assayed for cAMP using a radioimmunoassay kit (Diagnostic Product Corporation). Maximal responses (pmol/mg protein) and IC50 (nM) values were evaluated from the dose-response curves and data presented in Table 3.

Sprague-Dawley rats = assay: Intraperitoneal glucose tolerance test (IPGTT), plasma insulin levels in Sprague-Dawley rats; format: in vivo; settings: 10 μg/rat iv
Description: Sprague-Dawley rats (300–350 g) were fasted overnight, and injected with 1 g/kg glucose (2 ml) (over 15–20 seconds), and blood glucose levels were determined at different times during a period of 3 hours using a portable glucometer. The drugs (10 μg/rat) were dissolved in saline and injected into the femoral vein 5 minutes before the injection of glucose. Thus 0 time represents blood glucose and insulin levels after drug administration but before glucose injection. Plasma insulin levels were determined using a radioimmunoassay kit (Linco). […] The insulinogenic index was calculated as delta insulin (pM)/delta glucose (mM).

db/db mice = assay: OGTT in diabetic mice (db/db); format: in vivo; settings: 5 μG/mouse ip
Description: An OGTT was conducted as described in Example 3. Peptides were injected intra-parentally (ip) at 5 μG/mouse doses.

[1] = cited from earlier work
CD-1 normal female mice = settings: 1 μg dose ip, CD-1 mice
Description: An OGTT was done as described above. Plasma insulin levels were determined using a commercial RIA kit (Linco Research).

| IC50 (RINm5F cells) [nM] | Substance | Maximal Response (RINm5F cells) [pmol/mg protein] | accelerating glucose disposal compared to GLP-1 (db/db mice) | further results |
| --- | --- | --- | --- | --- |
| 8.7 ± 9.8 | [H7] 3-aminophenyl acetic acid GLP-1 (7–37) COOH [Compound 5] | 20.0 ± 6.9 | – | – |
| 6.4 ± 3.8 | GLP-1 (7–37) OH [reference compound] | 17.6 ± 5.1 | – | order of efficacy (Sprague-Dawley rats): 15=5>7=GLP-1>8=vehicle; half-life of circulating GLP-1 ([1]; Kreymann et al., 1987): about 4 minutes; metabolic clearance rate ([1]; active GLP-1 (Holst, 1994)): 12 to 13 min; plasma half-life ([1]; active GLP-1 (Holst, 1994)): < 5 min |
| – | [H7] (1S, 2S) 2-ethylcyclopropyl acetic acid GLP-1 (7–37) COOH [Compound 15] | – | performed better than GLP-1 | – |
| – | [H7] 3-methoxyphenyl acetic acid GLP-1 (7–37) COOH [Compound 7] | – | performed better than GLP-1 | effect on glucose disposal (CD-1 normal female mice): no effect on glucose disposal |
| 10.2 ± 7.7 | [H7] 3-aminophenyl acetic acid GLP-1 (7–36) CONH2 [Compound 16] | 13.8 ± 3.6 | – | – |

| Substance | IC50 (RINm5F cells) [nM] | Maximal Response (RINm5F cells) [pmol/mg protein] | accelerating glucose disposal compared to GLP-1 (db/db mice) | further results |
| --- | --- | --- | --- | --- |
| [H7] Salicylic acid GLP-1 (7–37) COOH [Compound 8] | 13.9 ± 15.6 | 25.1 ± 11.9 | performed better than GLP-1 | order of efficacy (Sprague-Dawley rats): 15=5>7=GLP-1>8=vehicle |
| [H7] Salicylic acid GLP-1 (7–37) CONH2 [Compound 17] | 13.2 ± 5.2 | 21.9 ± 2.1 | – | – |
